Legend:
SJSA-1 (Osteosarcoma) = test: combination Emax (second highest fraction inhibited in the dose matrix, 72 h); higher = more inhibition; extreme values may be limits of the assay
Procedure, shortened: (§1)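 Cell lines in DMEM/F12 or RPMI with 10% FBS were plated in 1536-well plates, held 24 hours at 37°C, 5% CO2, then given two-drug dose matrices for 72 hours (DMSO typically 0.2%). Viability was read by CellTiter-Glo 2.0 luminescence and scaled as inhibition from 0 (vehicle wells) to 1 (blank wells). Combination Emax is the second-highest inhibition in the matrix; Bliss excess is observed combination effect minus expected EA + EB − EA·EB, EA and EB being single-agent effects.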

[1] = test system: SK-GT-2 (Gastric Carcinoma); test: as above
Procedure, shortened: as §1

[2] = test system: HCC1419 (Breast Carcinoma); test: as above
Procedure, shortened: as §1

[3] = test system: H9 (T-Cell Non-Hodgkin's Lymphoma); test: as above
Procedure, shortened: as §1

[4] = test system: IM-95 (Gastric Carcinoma); test: as above
Procedure, shortened: as §1

[5] = test system: KP-3 (Pancreatic Carcinoma); test: as above
Procedure, shortened: as §1

[6] = test system: MOLM-13 (Acute Myeloid Leukemia); test: as above
Procedure, shortened: as §1

M059J (Glioblastoma) = test: as above
Procedure, shortened: as §1

[7] = test system: ESO51 (Esophageal Adenocarcinoma); test: as above
Procedure, shortened: as §1

[8] = test system: DMS-114 (Small Cell Lung Carcinoma); test: as above
Procedure, shortened: as §1

[9] = test system: NCI-H661 (Non-Small Cell Lung Carcinoma); test: as above
Procedure, shortened: as §1

NCI-H2731 (Mesothelioma) = test: as above
Procedure, shortened: as §1

[10] = test system: RPMI-8226 (Plasma Cell Myeloma); test: as above
Procedure, shortened: as §1

[11] = test system: SK-GT-4 (Esophageal Adenocarcinoma); test: as above
Procedure, shortened: as §1

[12] = test system: CHSA8926 (Chondrosarcoma); test: as above
Procedure, shortened: as §1

[13] = test system: JHH-4 (Hepatocellular Carcinoma); test: as above
Procedure, shortened: as §1

[14] = test system: KYSE-270 (Esophageal Squamous Cell Carcinoma); test: as above
Procedure, shortened: as §1

[15] = test system: HCC1187 (Breast Carcinoma); test: as above
Procedure, shortened: as §1

[16] = test system: ST486 (Burkitt's Lymphoma); test: as above
Procedure, shortened: as §1

[17] = test system: SUP-B15 (B-Lymphoblastic Leukemia); test: Bliss excess, mean over the matrix (fraction); higher = more synergy;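 further: after 72 h of two-drug dosing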
Procedure, shortened: as §1

Structure (SMILES) | combination Emax (SJSA-1 (Osteosarcoma)) | combination Emax [1] | combination Emax [2] | combination Emax [3] | combination Emax [4] | combination Emax [5] | combination Emax [6] | combination Emax (M059J (Glioblastoma)) | combination Emax [7] | combination Emax [8] | combination Emax [9] | combination Emax (NCI-H2731 (Mesothelioma)) | combination Emax [10] | combination Emax [11] | combination Emax [12] | combination Emax [13] | combination Emax [14] | combination Emax [15] | combination Emax [16] | Bliss excess [17]
COc1nnc2ccc(N3CCC(c4ccc(OCCN5CCN(C)C(=O)[C@H]5C)cc4)CC3)nn12 [AZD5153] + C[C@@H]1COCCN1C2=NC(=NC(=C2)C3(CC3)[S@](=N)(=O)C)C4=C5C=CNC5=NC=C4 [AZD6738] (first compound max 1 µM, 7x7, partner max 10 µM) | 0.634 | 0.535 | 0.295 | 1 | 0.44 | 0.409 | 1 | 0.74 | 0.823 | 0.733 | 0.698 | 0.699 | 0.905 | 0.663 | 0.632 | 0.714 | 0.57 | 0.696 | 0.973 | -0.012
CC1(C)CCC(CN2CCN(c3ccc(C(=O)NS(=O)(=O)c4ccc(NCC5CCOCC5)c([N+](=O)[O-])c4)c(Oc4cnc5[nH]ccc5c4)c3)CC2)=C(c2ccc(Cl)cc2)C1 [Venetoclax] + Cc1cc2ncnn2cc1Nc1ncc2c(n1)n(C1CCOCC1)c(=O)n2C [AZD7648] (first compound max 1 µM, 7x7, partner max 10 µM) | 0.291 | 0.155 | 0.383 | 0.396 | 0.155 | 0.13 | 0.956 | 0.279 | 0.131 | 0.315 | 0.16 | 0.157 | 0.438 | 0.374 | 0.359 | 0.208 | 0.675 | 0.142 | 0.69 | -0.0374
CC1(C)CCC(CN2CCN(c3ccc(C(=O)NS(=O)(=O)c4ccc(NCC5CCOCC5)c([N+](=O)[O-])c4)c(Oc4cnc5[nH]ccc5c4)c3)CC2)=C(c2ccc(Cl)cc2)C1 [Venetoclax] + COc1cc(Nc2ncc3c(n2)-c2ccc(Cl)cc2C(c2c(F)cccc2OC)=NC3)ccc1C(=O)O [Alisertib] (first compound max 1 µM, 7x7, partner max 10 µM) | 0.33 | 0.241 | 0.15 | 0.802 | 0.412 | 0.103 | 1 | 0.636 | 0.213 | 0.555 | 0.26 | 0.364 | 0.685 | 0.444 | 0.531 | 0.602 | 0.627 | 0.744 | 0.909 | 0.0151
Cn1cnc2c(F)c(Nc3ccc(Br)cc3Cl)c(C(=O)NOCCO)cc21 [Selumetinib] + C=CCn1c(=O)c2cnc(Nc3ccc(N4CCN(C)CC4)cc3)nc2n1-c1cccc(C(C)(C)O)n1 [AZD1775] (first compound max 10 µM, partner max 1 µM) | 0.449 | 0.652 | 0.0435 | 1 | 0.453 | 0.274 | 1 | 0.262 | 0.681 | 0.192 | 0.553 | 0.194 | 0.438 | 0.528 | 0.556 | 0.728 | 0.723 | 0.682 | 0.978 | 0.0934
Cc1c2c(nn1C)CSCc1cc(n(C)n1)CSc1cc(c3ccccc3c1)OCCCc1c(C(=O)O)n(C)c3c-2c(Cl)ccc13 [AZD5991] + C=CCn1c(=O)c2cnc(Nc3ccc(N4CCN(C)CC4)cc3)nc2n1-c1cccc(C(C)(C)O)n1 [AZD1775] (first compound max 1 µM, partner max 1 µM) | 0.387 | 0.809 | 0.198 | 1 | 0.895 | 0.269 | 1 | 0.634 | 0.591 | 0.657 | 0.949 | 0.298 | 0.984 | 0.465 | 0.679 | 0.545 | 0.921 | 0.998 | 1 | 0.0171
Cc1c2c(nn1C)CSCc1cc(n(C)n1)CSc1cc(c3ccccc3c1)OCCCc1c(C(=O)O)n(C)c3c-2c(Cl)ccc13 [AZD5991] + C1CN(CCC1(C(=O)N[C@@H](CCO)C2=CC=C(C=C2)Cl)N)C3=NC=NC4=C3C=CN4 [Capivasertib] (first compound max 1 µM, 7x7, partner max 3 µM) | 0.374 | 0.132 | 0.555 | 0.847 | 0.784 | 0.135 | 1 | 0.44 | 0.0827 | 0.911 | 0.755 | 0.21 | 0.976 | 0.377 | 0.597 | 0.211 | 0.505 | 1 | 0.829 | -0.0025
C[C@@H]1COCCN1c1cc(C2([S@](C)(=N)=O)CC2)nc(-c2ccnc3[nH]ccc23)n1 [AZD6738] + O=C(c1cc(Cc2n[nH]c(=O)c3ccccc23)ccc1F)N1CCN(C(=O)C2CC2)CC1 [Olaparib] (first compound max 10 µM, 7x7, partner max 10 µM) | 0.377 | 0.355 | 0.191 | 0.911 | 0.459 | – | 1 | 0.684 | 0.555 | 0.528 | 0.54 | 0.304 | 0.96 | 0.51 | 0.36 | 0.251 | 0.794 | 0.532 | 0.909 | -0.0608
C[C@@H](c1ccc2nccn2c1)n1nnc2ncc(-c3cnn(C)c3)nc21 [Savolitinib] + CN(CC[C@H](CSC1=CC=CC=C1)NC2=C(C=C(C=C2)S(=O)(=O)NC(=O)C3=CC=C(C=C3)N4CCC(CC4)[C@H](C5=CC=CC=C5C6=CC=C(C=C6)Cl)O)S(=O)(=O)C(F)(F)F)CCO [AZD4320] (first compound max 1 µM, 7x7, partner max 1 µM) | – | 0.136 | 0.325 | 0.929 | 0.675 | – | 1 | – | 0.95 | – | 0.189 | – | 0.944 | – | 0.528 | 0.256 | – | 0.205 | – | -0.0182
Cc1c2c(nn1C)CSCc1cc(n(C)n1)CSc1cc(c3ccccc3c1)OCCCc1c(C(=O)O)n(C)c3c-2c(Cl)ccc13 [AZD5991] + CN(C)CCCOc1ccc(-c2ccc3ncc4c(c3c2)n(C2CCOCC2)c(=O)n4C)cn1 [AZD0156] (first compound max 1 µM, 7x7, partner max 1 µM) | 0.322 | 0.182 | 0.385 | 0.834 | 0.824 | – | 1 | 0.338 | 0.205 | 0.548 | 0.505 | 0.193 | 0.963 | 0.277 | 0.497 | 0.331 | 0.542 | 0.988 | 0.805 | -0.0117
Cc1c2c(nn1C)CSCc1cc(n(C)n1)CSc1cc(c3ccccc3c1)OCCCc1c(C(=O)O)n(C)c3c-2c(Cl)ccc13 [AZD5991] + Cn1cnc2c(F)c(Nc3ccc(Br)cc3Cl)c(C(=O)NOCCO)cc21 [Selumetinib] (first compound max 1 µM, 7x7, partner max 3 µM) | 0.457 | 0.154 | 0.284 | 1 | 0.957 | – | 1 | 0.264 | 0.361 | 0.43 | 0.462 | 0.151 | 0.96 | 0.574 | 0.303 | 0.492 | 0.76 | 0.986 | 0.993 | 0.0806
COc1nnc2ccc(N3CCC(c4ccc(OCCN5CCN(C)C(=O)[C@H]5C)cc4)CC3)nn12 [AZD5153] + CN(CC[C@H](CSC1=CC=CC=C1)NC2=C(C=C(C=C2)S(=O)(=O)NC(=O)C3=CC=C(C=C3)N4CCC(CC4)[C@H](C5=CC=CC=C5C6=CC=C(C=C6)Cl)O)S(=O)(=O)C(F)(F)F)CCO [AZD4320] (first compound max 1 µM, 7x7, partner max 1 µM) | – | 0.346 | 0.277 | 1 | 0.548 | – | 1 | – | 0.666 | – | 0.272 | – | 0.996 | – | 0.695 | 0.36 | – | 0.366 | – | -0.0077
CC(=O)Nc1cccc(-n2c(=O)n(C3CC3)c(=O)c3c(Nc4ccc(I)cc4F)n(C)c(=O)c(C)c32)c1 [Trametinib] + Cc1nc(-c2cn3c(n2)-c2ccc(-c4cnn(C(C)(C)C(N)=O)c4)cc2OCC3)n(C(C)C)n1 [Taselisib] (first compound max 1 µM, 7x7, partner max 10 µM) | 0.699 | 0.723 | 0.649 | 0.984 | 0.584 | 0.446 | 1 | 0.713 | 0.987 | 0.668 | 0.457 | 0.498 | 0.755 | 0.954 | – | 0.997 | 0.8 | 0.456 | 0.775 | 0.539
C=CCn1c(=O)c2cnc(Nc3ccc(N4CCN(C)CC4)cc3)nc2n1-c1cccc(C(C)(C)O)n1 [AZD1775] + C[C@@H]1COCCN1C2=NC(=NC(=C2)C3(CC3)[S@](=N)(=O)C)C4=C5C=CNC5=NC=C4 [AZD6738] (first compound max 1 µM, partner max 10 µM) | 0.393 | 0.799 | 0.221 | 1 | 0.761 | – | 0.999 | 0.777 | 0.754 | 0.511 | 0.689 | 0.464 | 0.983 | 0.722 | 0.461 | 0.498 | 1 | 0.683 | 0.979 | 0.0535
